Square brackets hold non-standard residues; d marks the D form. Peptide text beside a SMILES is read from it. * marks the point of attachment. Propanoyl(3-Pip(4-O-2-BnPh)) = O=C(CCN1CCC(Oc2ccccc2Cc2ccccc2)CC1)*
Columns and labels:
Nluc-H1R [1] = molecular target: T1, Nluc-H1R (Homo sapiens, UniProt P35367); experiment: NanoBRET competition binding assay (displacement of 1) on Nluc-H1R expressing HEK293T cells; settings: for Ki / pKi: displacement of 1 (25 nM, KD = 8 nM), whole HEK293T cells, Cheng–Prusoff; for pKi: mean ± SEM, three experiments; for pKi/pKD (H1R): supplementary CSV, unlabeled congeners (pKi)
T1 sequence (P35367 whole entry): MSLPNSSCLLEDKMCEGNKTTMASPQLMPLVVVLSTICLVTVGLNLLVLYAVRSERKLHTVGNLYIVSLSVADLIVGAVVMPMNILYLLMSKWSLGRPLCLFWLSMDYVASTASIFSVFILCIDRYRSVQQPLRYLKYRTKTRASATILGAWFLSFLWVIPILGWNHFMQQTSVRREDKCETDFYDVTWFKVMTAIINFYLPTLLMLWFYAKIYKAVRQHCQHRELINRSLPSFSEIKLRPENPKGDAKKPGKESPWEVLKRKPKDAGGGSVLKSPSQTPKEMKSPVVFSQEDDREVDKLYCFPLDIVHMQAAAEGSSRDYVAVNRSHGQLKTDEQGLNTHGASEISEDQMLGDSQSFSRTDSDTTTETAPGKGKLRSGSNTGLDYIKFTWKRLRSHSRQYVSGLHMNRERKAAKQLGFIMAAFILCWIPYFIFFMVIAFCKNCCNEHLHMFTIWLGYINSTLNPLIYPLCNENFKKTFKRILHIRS

Nluc-H1R [2] = molecular target: T1, Nluc-H1R; experiment: NanoBRET saturation binding assay on Nluc-H1R expressing HEK293T cells; design: expressed in transfected cells; settings: saturation binding curves, whole HEK293T cells; for pKD: non-specific with 10 μM mepyramine, mean ± SEM
From the text: Total and non-specific saturation binding curves from NanoBRET saturation binding assay were fitted simultaneously using eq 1: [drawing 4] 1 where Bmax is the maximal specific binding, [B] is the concentration of fluorescent ligand in nM, KD is the equilibrium dissociation constant in nM, M is the slope of the non-specific component, and C is the intercept with the Y axis.

Q: For `CC(C)[C@H](NC(=O)CCN1CCC(Oc2ccccc2Cc2ccccc2)CC1)C(=O)N[C@@H](CCCCN)C(=O)N[C@@H](C)C(=O)N[C@H](Cc1ccccc1)C(N)=O` [Compound 9h, (S)-6-Amino-N-((S)-1-(((R)-1-amino-1-oxo-3-phenylpropan-2-yl)amino)-1-oxopropan-2-yl)-2-((S)-2-(3-(4-(2-benzylphenoxy)piperidin-1-yl)propanamido)-3-methylbutanamido)hexanamide] ({Propanoyl(3-Pip(4-O-2-BnPh))}-VKA[dF]-NH2), which Ki (Nluc-H1R [1]) is on record?
A: 2.4 µM

Q: And the pKi (Nluc-H1R [1])?
A: 5.62 ± 0.06

Q: How did the Ki (Nluc-H1R [1]) turn out when `CC(C)[C@H](NC(=O)CCN1CCC(Oc2ccccc2Cc2ccccc2)CC1)C(=O)N[C@@H](CC(=O)O)C(=O)N[C@@H](C)C(=O)N[C@H](Cc1ccccc1)C(N)=O` [Compound 9i, (S)-4-(((S)-1-(((R)-1-Amino-1-oxo-3-phenylpropan-2-yl)amino)-1-oxopropan-2-yl)amino)-3-((S)-2-(3-(4-(2-benzylphenoxy)piperidin-1-yl)propanamido)-3-methylbutanamido)-4-oxobutanoic Acid] ({Propanoyl(3-Pip(4-O-2-BnPh))}-VDA[dF]-NH2) was run?
A: 0.55 µM

Q: And the pKi (Nluc-H1R [1])?
A: 6.26 ± 0.14

Q: Which results are given for `CC(C)[C@H](NC(=O)CCN1CCC(Oc2ccccc2Cc2ccccc2)CC1)C(=O)N[C@@H](CO)C(=O)NCC(=O)N[C@H](Cc1ccccc1)C(N)=O` [Compound 10a, (S)-N-((S)-1-((2-(((R)-1-Amino-1-oxo-3-phenylpropan-2-yl)amino)-2-oxoethyl)amino)-3-hydroxy-1-oxopropan-2-yl)-2-(3-(4-(2-benzylphenoxy)piperidin-1-yl)propanamido)-3-methylbutanamide] ({Propanoyl(3-Pip(4-O-2-BnPh))}-VSG[dF]-NH2)?
A: Ki (Nluc-H1R [1]): 0.158 µM; pKi (Nluc-H1R [1]): 6.80 ± 0.05

Q: What does the source list for `CC(C)[C@H](NC(=O)CCN1CCC(Oc2ccccc2Cc2ccccc2)CC1)C(=O)N[C@@H](CO)C(=O)N[C@H](C(=O)N[C@H](Cc1ccccc1)C(N)=O)C(C)C` [Compound 10b, (S)-N-((R)-1-Amino-1-oxo-3-phenylpropan-2-yl)-2-((S)-2-((S)-2-(3-(4-(2-benzylphenoxy)piperidin-1-yl)propanamido)-3-methylbutanamido)-3-hydroxypropanamido)-3-methylbutanamide] ({Propanoyl(3-Pip(4-O-2-BnPh))}-VSV[dF]-NH2)?
A: Ki (Nluc-H1R [1]): 0.309 µM; pKi (Nluc-H1R [1]): 6.51 ± 0.07

Q: How did the Ki (Nluc-H1R [1]) turn out when `CC(C)[C@H](NC(=O)CCN1CCC(Oc2ccccc2Cc2ccccc2)CC1)C(=O)N[C@@H](CO)C(=O)N[C@@H](Cc1ccccc1)C(=O)N[C@H](Cc1ccccc1)C(N)=O` [Compound 10c, (S)-N-((S)-1-(((S)-1-(((R)-1-Amino-1-oxo-3-phenylpropan-2-yl)amino)-1-oxo-3-phenylpropan-2-yl)amino)-3-hydroxy-1-oxopropan-2-yl)-2-(3-(4-(2-benzylphenoxy)piperidin-1-yl)propanamido)-3-methylbutanamide] ({Propanoyl(3-Pip(4-O-2-BnPh))}-VSF[dF]-NH2) was run?
A: 0.11 µM

Q: What about the pKi (Nluc-H1R [1]) of the same compound?
A: 6.96 ± 0.02

Q: With `CC(C)[C@H](NC(=O)CCN1CCC(Oc2ccccc2Cc2ccccc2)CC1)C(=O)N[C@@H](CO)C(=O)N[C@@H](Cc1ccc(O)cc1)C(=O)N[C@H](Cc1ccccc1)C(N)=O` [Compound 10d, (S)-N-((S)-1-(((S)-1-(((R)-1-Amino-1-oxo-3-phenylpropan-2-yl)amino)-3-(4-hydroxyphenyl)-1-oxopropan-2-yl)amino)-3-hydroxy-1-oxopropan-2-yl)-2-(3-(4-(2-benzylphenoxy)piperidin-1-yl)propanamido)-3-methylbutanamide] ({Propanoyl(3-Pip(4-O-2-BnPh))}-VSY[dF]-NH2) as the compound, how does the Ki (Nluc-H1R [1]) read?
A: 0.095 µM

Q: What about the pKi (Nluc-H1R [1]) of the same compound?
A: 7.02 ± 0.08

Q: What does the source list for `CC(C)[C@H](NC(=O)CCN1CCC(Oc2ccccc2Cc2ccccc2)CC1)C(=O)N[C@@H](CO)C(=O)N[C@@H](CO)C(=O)N[C@H](Cc1ccccc1)C(N)=O` [Compound 10e, (S)-N-((S)-1-(((S)-1-(((R)-1-Amino-1-oxo-3-phenylpropan-2-yl)amino)-3-hydroxy-1-oxopropan-2-yl)amino)-3-hydroxy-1-oxopropan-2-yl)-2-(3-(4-(2-benzylphenoxy)piperidin-1-yl)propanamido)-3-methylbutanamide] ({Propanoyl(3-Pip(4-O-2-BnPh))}-VSS[dF]-NH2)?
A: Ki (Nluc-H1R [1]): 0.339 µM; pKi (Nluc-H1R [1]): 6.47 ± 0.03

Q: Which Ki (Nluc-H1R [1]) does the source give for `CC(C)[C@H](NC(=O)CCN1CCC(Oc2ccccc2Cc2ccccc2)CC1)C(=O)N[C@@H](CO)C(=O)N[C@@H](CC(N)=O)C(=O)N[C@H](Cc1ccccc1)C(N)=O` [Compound 10f, (S)-N1-((R)-1-Amino-1-oxo-3-phenylpropan-2-yl)-2-((S)-2-((S)-2-(3-(4-(2-benzylphenoxy)piperidin-1-yl)propanamido)-3-methylbutanamido)-3-hydroxypropanamido)succinamide] ({Propanoyl(3-Pip(4-O-2-BnPh))}-VSN[dF]-NH2) here?
A: 0.095 µM

Q: What about the pKi (Nluc-H1R [1]) of the same compound?
A: 7.02 ± 0.08

Q: What does the source list for `CC(C)[C@H](NC(=O)CCN1CCC(Oc2ccccc2Cc2ccccc2)CC1)C(=O)N[C@@H](CO)C(=O)N[C@@H](Cc1cnc[nH]1)C(=O)N[C@H](Cc1ccccc1)C(N)=O` [Compound 10g, (S)-N-((S)-1-(((S)-1-(((R)-1-Amino-1-oxo-3-phenylpropan-2-yl)amino)-3-(1H-imidazol-4-yl)-1-oxopropan-2-yl)amino)-3-hydroxy-1-oxopropan-2-yl)-2-(3-(4-(2-benzylphenoxy)piperidin-1-yl)propanamido)-3-methylbutanamide] ({Propanoyl(3-Pip(4-O-2-BnPh))}-VSH[dF]-NH2)?
A: Ki (Nluc-H1R [1]): 0.126 µM; pKi (Nluc-H1R [1]): 6.90 ± 0.04

Q: For `CC(C)[C@H](NC(=O)CCN1CCC(Oc2ccccc2Cc2ccccc2)CC1)C(=O)N[C@@H](CO)C(=O)N[C@@H](CCCCN)C(=O)N[C@H](Cc1ccccc1)C(N)=O` [Compound 10h, (S)-6-Amino-N-((R)-1-amino-1-oxo-3-phenylpropan-2-yl)-2-((S)-2-((S)-2-(3-(4-(2-benzylphenoxy)piperidin-1-yl)propanamido)-3-methylbutanamido)-3-hydroxypropanamido)hexanamide] ({Propanoyl(3-Pip(4-O-2-BnPh))}-VSK[dF]-NH2), which Ki (Nluc-H1R [1]) is on record?
A: 0.186 µM

Q: What about the pKi (Nluc-H1R [1]) of the same compound?
A: 6.73 ± 0.05

Q: What does the source list for `CC(C)[C@H](NC(=O)CCN1CCC(Oc2ccccc2Cc2ccccc2)CC1)C(=O)N[C@@H](CO)C(=O)N[C@@H](CC(=O)O)C(=O)N[C@H](Cc1ccccc1)C(N)=O` [Compound 10i, (S)-4-(((R)-1-Amino-1-oxo-3-phenylpropan-2-yl)amino)-3-((S)-2-((S)-2-(3-(4-(2-benzylphenoxy)piperidin-1-yl)propanamido)-3-methylbutanamido)-3-hydroxypropanamido)-4-oxobutanoic Acid] ({Propanoyl(3-Pip(4-O-2-BnPh))}-VSD[dF]-NH2)?
A: Ki (Nluc-H1R [1]): 0.174 µM; pKi (Nluc-H1R [1]): 6.76 ± 0.04

Q: Which results are given for `CC(C)[C@H](NC(=O)CCN1CCC(Oc2ccccc2Cc2ccccc2)CC1)C(=O)N[C@@H](CO)C(=O)N[C@@H](CC(N)=O)C(=O)N[C@@H](Cn1cc(COc2ccc(/C=C/C3=[N+]4C(=Cc5ccc(-c6cccs6)n5[B-]4(F)F)C=C3)cc2)nn1)C(N)=O` [Compound 22a, (S)-N1-((S)-1-Amino-3-(4-((4-((E)-2-(5,5-difluoro-7-(thiophen-2-yl)-5H-5λ^4,6λ^4-dipyrrolo[1,2-c:2’,1’-f][1,3,2]diazaborinin-3-yl)vinyl)phenoxy)methyl)-1H-1,2,3-triazol-1-yl)-1-oxopropan-2-yl)-2-((S)-2-((S)-2-(3-(4-(2-benzylphenoxy)piperidin-1-yl)propanamido)-3-methylbutanamido)-3-hydroxypropanamido)succinamide]?
A: Kd (Nluc-H1R [2]): 0.028 µM; pKD (Nluc-H1R [2]): 7.55 ± 0.07

Q: With `C[C@H](NC(=O)CCN1CCC(Oc2ccccc2Cc2ccccc2)CC1)C(=O)N[C@@H](C)C(=O)N[C@@H](C)C(=O)N[C@@H](Cn1cc(COc2ccc(/C=C/C3=[N+]4C(=Cc5ccc(-c6cccs6)n5[B-]4(F)F)C=C3)cc2)nn1)C(N)=O` [Compound 22b, (S)-N-((S)-1-Amino-3-(4-((4-((E)-2-(5,5-difluoro-7-(thiophen-2-yl)-5H-5λ^4,6λ^4-dipyrrolo[1,2-c:2’,1’-f][1,3,2]diazaborinin-3-yl)vinyl)phenoxy)methyl)-1H-1,2,3-triazol-1-yl)-1-oxopropan-2-yl)-2-((S)-2-((S)-2-(3-(4-(2-benzylphenoxy)piperidin-1-yl)propanamido)propanamido)propanamido)propenamide] as the compound, how does the Kd (Nluc-H1R [2]) read?
A: 0.02 µM

Q: What about the pKD (Nluc-H1R [2]) of the same compound?
A: 7.70 ± 0.05

Q: Which Ki (Nluc-H1R [1]) does the source give for “(S)-N1-((S)-1-Amino-1-oxo-3-phenylpropan-2-yl)-2-((S)-2-((S)-2-(3-(4-(2-benzylphenoxy)piperidin-1-yl)propanamido)-3-methylbutanamido)-3-hydroxypropanamido)succinimide [Compound 11b]” here?
A: 0.437 µM

Q: What about the pKi (Nluc-H1R [1]) of the same compound?
A: 6.36 ± 0.22

Q: And the “pKi/pKD (H1R)” value (Nluc-H1R [1])?
A: 7.05

Q: What does the source list for “(S)-N-((S)-1-(((S)-1-(((S)-1-Amino-1-oxo-3-phenylpropan-2-yl)amino)-3-(4-hydroxyphenyl)-1-oxopropan-2-yl)amino)-3-hydroxy-1-oxopropan-2-yl)-2-(3-(4-(2-benzylphenoxy)piperidin-1-yl)propanamido)-3-methylbutanamide [Compound 11a]”?
A: Ki (Nluc-H1R [1]): 0.089 µM; pKi/pKD (H1R) (Nluc-H1R [1]): 6.36

From article PMC9234962, “Optimization of Peptide Linker-Based Fluorescent Ligands for the Histamine H1 Receptor” (Journal of Medicinal Chemistry, 2022)
